This assay deals with HIV-1. As to the kind of experiment: HIV-1 single-round infectious luciferase reporter virus (pseudotype) assay in HeLa CD4 CCR5 cells. The assay is classed as cell-based. Put shortly: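 Reporter pseudovirus produced in 293 cells infected HeLa cells expressing CD4/CCR5 at MOI ~0.01, with compound present at <10 μM final. Infection was quantified as luciferase luminescence after 72 h.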
For orientation: Reporter assays use an easily measured gene product as a stand-in for the process of interest.

Setting [1] is: Human immunodeficiency virus 1, HeLa-CD4/CCR5, read-out: EC50 Group from TABLE 1, HeLa CD4 CCR5 cells, single-round infectious luciferase reporter virus.
Setting [2] is: Human immunodeficiency virus 1, HeLa-CD4/CCR5, read-out: EC50 Group from Table 1, Table 4, HeLa CD4 CCR5 cells, single-round luciferase reporter virus.

Broadly, the EC50 is the concentration that produces a half-maximal response.

Molecules are shown by their SMILES. Read-outs that look alike come from different tables or passages of the source.

For the compound `COc1cnc(-c2cnc(CC(C)C)s2)c2[nH]cc(C(=O)C(=O)N3CCN(C(=O)c4ccccc4)CC3)c12` [Example 90, 1-benzoyl-4-[(4-methoxy-7-(2-isobutyl-thiazol-5-yl)-6-azaindol-3-yl)-oxoacetyl]piperazine], the EC50 under setting [1] was under 1000 nM.

Consider `CCC(C)c1ncc(-c2ncc(OC)c3c(C(=O)C(=O)N4CCN(C(=O)c5ccccc5)CC4)c[nH]c23)s1` (stereo not drawn) [Example 91, 1-benzoyl-4-[(4-methoxy-7-(2-(2-butyl)-thiazol-5-yl)-6-azaindol-3-yl)-oxoacetyl]piperazine], for which, under setting [1], the concentration giving a half-maximal response (EC50) is under 1000 nM.

For `COc1cnc(-c2cnc(-c3nccs3)s2)c2[nH]cc(C(=O)C(=O)N3CCN(C(=O)c4ccccc4)CC3)c12` [Example 92, 1-benzoyl-4-[(4-methoxy-7-(2-(thiazol-2-yl)-thiazol-5-yl)-6-azaindol-3-yl)-oxoacetyl]piperazine], the concentration giving a half-maximal response (EC50) under setting [1] was under 1000 nM.

As to `COc1cnc(-c2cnc(SC)s2)c2[nH]cc(C(=O)C(=O)N3CCN(C(=O)c4ccccc4)CC3)c12` [Example 93, 1-benzoyl-4-[(4-methoxy-7-(2-methylthio-thiazol-5-yl)-6-azaindol-3-yl)-oxoacetyl]piperazine], under setting [1], the concentration giving a half-maximal response (EC50) is under 1000 nM.

`COc1cnc(-c2cnc(O)cn2)c2[nH]cc(C(=O)C(=O)N3CCN(C(=O)c4ccccc4)CC3)c12` [Example 97, 1-(benzoyl)-4-[(4-methoxy-7-(2-hydroxyl-pyrazin-5-yl)-6-azaindol-3-yl)-oxoacetyl]piperazine]: under setting [1], the EC50 is under 1000 nM.

Take `COc1cnc(-c2cc3ccccc3o2)c2[nH]cc(C(=O)C(=O)N3CCN(C(=O)c4ccccc4)CC3)c12` [Example 98]: under setting [1], the EC50 is under 1000 nM.

For the compound `COc1cnc(-c2cnc(NC(C)=O)cn2)c2[nH]cc(C(=O)C(=O)N3CCN(C(=O)c4ccccc4)CC3)c12` [Example 99, 1-(benzoyl)-4-[(4-methoxy-7-(2-acetylamino-pyrazin-5-yl)-6-azaindol-3-yl)-oxoacetyl]piperazine], the concentration for a half-maximal effect (EC50) under setting [1] is under 1000 nM.

Take `CNc1ncc(-c2ncc(OC)c3c(C(=O)C(=O)N4CCN(C(=O)c5ccccc5)CC4)c[nH]c23)nc1OC` [Example 100, 1-benzoyl-4-[(4-methoxy-7-(2-methylamino-3-methoxy-pyrazin-5-yl)-6-azaindol-3-yl)-oxoacetyl]piperazine]: under setting [1], the EC50 was under 1000 nM.

Consider `COc1nc(-c2ncc(OC)c3c(C(=O)C(=O)N4CCN(C(=O)c5ccccc5)CC4)c[nH]c23)cnc1N` [Example 101, 1-benzoyl-4-[(4-methoxy-7-(2-amino-3-methoxy-pyrazin-5-yl)-6-azaindol-3-yl)-oxoacetyl]piperazine], for which, under setting [1], the concentration giving a half-maximal response (EC50) is under 1000 nM.

Turning to `COc1cnc(-c2cnc(N(C)C)cn2)c2[nH]cc(C(=O)C(=O)N3CCN(C(=O)c4ccccn4)CC3)c12` [Example 103, 1-picolinoyl-4-[(4-methoxy-7-(2-dimethylamino-pyrazin-5-yl)-6-azaindol-3-yl)-oxoacetyl]piperazine], the 50% effective concentration (EC50) under setting [1] is under 1000 nM.

For `COc1cnc(-c2cc3ccncc3o2)c2[nH]cc(C(=O)C(=O)N3CCN(C(=O)c4ccccc4)CC3)c12` [Example 104, 1-benzoyl-4-[(4-methoxy-7-(6-aza-benzofuran-2-yl)-6-azaindol-3-yl)-oxoacetyl]piperazine], under setting [1], the 50% effective concentration (EC50) is under 1000 nM.

In the case of `C[C@@H]1CN(C(=O)c2ccccn2)CCN1C(=O)C(=O)c1c[nH]c2c(-c3cnc(N(C)C)cn3)nccc12` [Example 105, (R)-1-picolinoyl-3-methyl-4-[(7-(2-dimethylamino-pyrazin-5-yl)-6-azaindol-3-yl)-oxoacetyl]piperazine], the EC50 under setting [1] was under 1000 nM.

For the compound `C[C@H]1CN(C(=O)c2ccccn2)CCN1C(=O)C(=O)c1c[nH]c2c(-c3cnc(N(C)C)cn3)nccc12` [Example 106, (S)-1-picolinoyl-3-methyl-4-[(7-(2-dimethylamino-pyrazin-5-yl)-6-azaindol-3-yl)-oxoacetyl]piperazine], the EC50 under setting [1] is under 1000 nM.

For `C[C@@H]1CN(C(=O)c2ccccn2)CCN1C(=O)C(=O)c1c[nH]c2c(-c3cc4ccccc4o3)nccc12` [Example 107, (R)-1-picolinoyl-3-methyl-4-[(7-(benzofuran-2-yl)-6-azaindol-3-yl)-oxoacetyl]piperazine], the EC50 under setting [1] is under 1000 nM.

For `C[C@H]1CN(C(=O)c2ccccn2)CCN1C(=O)C(=O)c1c[nH]c2c(-c3cc4ccccc4o3)nccc12` [Example 108, (S)-1-picolinoyl-3-methyl-4-[(7-(benzofuran-2-yl)-6-azaindol-3-yl)-oxoacetyl]piperazine], the EC50 under setting [1] was under 1000 nM.

In the case of `C[C@@H]1CN(C(=O)c2ccccn2)CCN1C(=O)C(=O)c1c[nH]c2c(-c3cncs3)nccc12` [Example 109, (R)-1-picolinoyl-3-methyl-4-[(7-(thiazol-5-yl)-6-azaindol-3-yl)-oxoacetyl]piperazine], the EC50 under setting [1] was under 1000 nM.

`C[C@H]1CN(C(=O)c2ccccn2)CCN1C(=O)C(=O)c1c[nH]c2c(-c3cncs3)nccc12` [Example 110, (S)-1-picolinoyl-3-methyl-4-[(7-(thiazol-5-yl)-6-azaindol-3-yl)-oxoacetyl]piperazine]: the EC50 under setting [1] is under 1000 nM.

Turning to `C[C@@H]1CN(C(=O)c2ccccc2)CCN1C(=O)C(=O)c1c[nH]c2c(-c3cncc(N)n3)nccc12` [Example 111, (R)-1-benzoyl-3-methyl-4-[(7-(2-amino-pyrazin-6-yl)-6-azaindol-3-yl)-oxoacetyl]piperazine], the EC50 under setting [1] was under 1000 nM.

As to `C[C@@H]1CN(C(=O)c2ccccc2)CCN1C(=O)C(=O)c1c[nH]c2c(-c3cccc(N)n3)nccc12` [Example 112, (R)-1-benzoyl-3-methyl-4-[(7-(2-amino-pyridin-6-yl)-6-azaindol-3-yl)-oxoacetyl]piperazine], the concentration for a half-maximal effect (EC50) under setting [1] is under 1000 nM.

`C[C@@H]1CN(C(=O)c2ccccc2)CCN1C(=O)C(=O)c1c[nH]c2c(-c3ccc(N)nc3)nccc12` [Example 113, (R)-1-benzoyl-3-methyl-4-[(7-(2-amino-pyridin-5-yl)-6-azaindol-3-yl)-oxoacetyl]piperazine]: under setting [1], the EC50 is under 1000 nM.

As for `C[C@@H]1CN(C(=O)c2ccccc2)CCN1C(=O)C(=O)c1c[nH]c2c(-c3ccc(N)cn3)nccc12` [Example 114, (R)-1-benzoyl-3-methyl-4-[(7-(5-amino-pyridin-2-yl)-6-azaindol-3-yl)-oxoacetyl]piperazine], the EC50 under setting [1] was under 1000 nM.

As to `CNc1cnc(-c2ncc(OC)c3c(C(=O)C(=O)N4CCN(C(=O)c5ccccc5)CC4)c[nH]c23)cn1` [Example 115, 1-benzoyl-4-[(4-methoxy-7-(2-methylamino-pyrazin-5-yl)-6-azaindol-3-yl)-oxoacetyl]piperazine], the EC50 under setting [1] is under 1000 nM.

Turning to `COc1cnc(-c2cnc(N3CCCC3=O)s2)c2[nH]cc(C(=O)C(=O)N3CCN(C(=O)c4ccccc4)CC3)c12` [Example 116, 1-benzoyl-4-[(4-methoxy-7-((2-pyrrolidinon-1-yl)-thiazol-5-yl)-6-azaindol-3-yl)-oxoacetyl]piperazine], under setting [1], the EC50 is under 1000 nM.

As to `COc1ncc(-c2ncc(OC)c3c(C(=O)C(=O)N4CCN(C(=O)c5ccccc5)CC4)c[nH]c23)cn1` [Example 117, 1-benzoyl-4-[(4-methoxy-7-(2-methoxy-pyrmdin-5-yl)-6-azaindol-3-yl)-oxoacetyl]piperazine], under setting [1], the EC50 is under 1000 nM.

On to `COc1cnc(-c2cnc(-n3cccc3)nc2)c2[nH]cc(C(=O)C(=O)N3CCN(C(=O)c4ccccc4)CC3)c12` [Example 118, 1-benzoyl-4-[(4-methoxy-7-(2-(pyrrol-1-yl)-pyrimidin-5-yl)-6-azaindol-3-yl)-oxoacetyl]piperazine], for which the 50% effective concentration (EC50) under setting [1] was under 1000 nM.

Take `COc1cnc(-c2cccnn2)c2[nH]cc(C(=O)C(=O)N3CCN(C(=O)c4ccccc4)CC3)c12` [Example 120, 1-benzoyl-4-[(4-methoxy-7-(pyridazin-3-yl)-6-azaindol-3-yl)-oxoacetyl]piperazine]: the EC50 under setting [1] was under 1000 nM.

With `C[C@@H]1CN(C(=O)c2ccccc2)CCN1C(=O)C(=O)c1c[nH]c2c(-c3cncc(O)n3)nccc12` [Example 121], the EC50 under setting [1] was under 1000 nM.

As for `C[C@@H]1CN(C(=O)c2ccccc2)CCN1C(=O)C(=O)c1c[nH]c2c(-c3ccc(O)nc3)nccc12` [Example 122], under setting [1], the EC50 is under 1000 nM.

As to `C[C@@H]1CN(C(=O)c2ccccc2)CCN1C(=O)C(=O)c1c[nH]c2c(-c3cccc(O)n3)nccc12` [Example 123], under setting [1], the EC50 was under 1000 nM.

For the compound `C[C@@H]1CN(C(=O)c2ccccc2)CCN1C(=O)C(=O)c1c[nH]c2c(-c3ccc(O)cn3)nccc12` [Example 124], under setting [1], the EC50 is under 1000 nM.

For `O=C(C(=O)N1CCN(C(=O)c2ccccc2)CC1)c1c[nH]c2c(-c3ccncn3)ncc(F)c12` [Example 125], the concentration for a half-maximal effect (EC50) under setting [1] is under 1000 nM.

Take `C[C@@H]1CN(C(=O)c2ccccc2)CCN1C(=O)C(=O)c1c[nH]c2c(-c3ncco3)ccnc12` [Example 126]: the EC50 under setting [2] is under 1000 nM.

For `C[C@@H]1CN(C(=O)c2ccccc2)CCN1C(=O)C(=O)c1c[nH]c2c(-c3cc4ccccc4s3)ccnc12` [Example 127], the EC50 under setting [2] is under 1000 nM.

With `C[C@@H]1CN(C(=O)c2ccccc2)CCN1C(=O)C(=O)c1c[nH]c2c(-c3cccs3)ccnc12` [Example 128], under setting [2], the EC50 is under 1000 nM.

With `C[C@@H]1CN(C(=O)c2ccccc2)CCN1C(=O)C(=O)c1c[nH]c2c(-c3ccsc3)ccnc12` [Example 129], the EC50 under setting [2] is under 1000 nM.

Regarding `Cc1noc(C)c1-c1ccnc2c(C(=O)C(=O)N3CCN(C(=O)c4ccccc4)C[C@H]3C)c[nH]c12` [Example 130], the EC50 under setting [2] was under 1000 nM.

`O=C(C(=O)N1CCN(C(=O)c2ccccc2)CC1)c1c[nH]c2c(-c3nccs3)ccnc12` [Example 131]: the 50% effective concentration (EC50) under setting [2] was under 1000 nM.

Regarding `CC(=O)c1ccc(-c2ccnc3c(C(=O)C(=O)N4CCN(C(=O)c5ccccc5)CC4)c[nH]c23)s1` [Example 132], the 50% effective concentration (EC50) under setting [2] is under 1000 nM.

On to `O=Cc1ccc(-c2ccnc3c(C(=O)C(=O)N4CCN(C(=O)c5ccccc5)CC4)c[nH]c23)s1` [Example 133], for which the EC50 under setting [2] was under 1000 nM.
